Results on one compound are retold here after publication PMC8557901 (Microbiology Spectrum, 2021).

Data set [1] can be described thus: MTT cell viability assay, simian primary hepatocytes. The data set is classed as cell-based. Conditions: Macaca fascicularis (cynomolgus monkey), primary hepatocytes (cryopreserved). An excerpt:
Primary human hepatocytes were isolated from liver segments obtained from adult patients undergoing partial hepatectomy (Service de Chirurgie Digestive, Hépato-Bilio Pancréatique, Hôpital Pitié Salpêtrière, Paris, France). Primary simian hepatocytes were isolated from liver segments collected from healthy Macaca fascicularis monkeys from CEA, Fontenay aux Roses, France. All hepatocytes were obtained using collagenase perfusion as previously described ([40]). Simian hepatocytes were immediately cryopreserved with a Nicool-Freezal controlled rate freezer (Air Liquide Santé, Marne la Vallée, France) and then used when needed after fast thawing at 37°C. Primary murine hepatocytes were isolated from liver segments collected from BALB/c mice. Human and murine hepatocytes were used directly after their isolation. Cells were seeded in 96-well plates (Falcon; Becton Dickinson Labware Europe, France) coated with collagen I (BD Bioscience, USA) at a density of 80,000 cells per well. […]
The toxicity of M1 toward primary hepatocytes and HepG2-CD81 cells was evaluated through the MTT {[3-(4,5-dimethyl-2-thiazolyl)-2,5-diphenyl-2H-tetrazolium bromide]} test ([42]). […] Then, MTT was replaced by a mixture of DMSO-ethanol (1:1) to dissolve formazan crystals and the absorbance was read at 540 nm on a FlexStation plate reader.
(In general: Tetrazolium assays rely on reduction of a dye to a coloured formazan, in cell work by metabolically active cells.)

In data set [2] the test system is P. falciparum mature gametocytes (stage V). In words: Exflagellation-blocking assay. The class given is cell-based, Plasmodium falciparum. Conditions: 10 μM, 24 h preincubation of stage V gametocytes. As for the experimental part: Exflagellation-blocking assays were performed according to published protocols ([48], [49]). Assays were performed using gametocyte cultures providing high-enough numbers of exflagellation centers for meaningful measurement (>30 centers of exflagellation in 50 microscope fields at 400× magnification). […] The 6-well plate was incubated at 37°C. After treatment with M1 during 2 h or 24 h, exflagellation was induced by decreasing the temperature to 25°C and replacing culture medium with AB serum. The numbers of exflagellation centers were recorded between 10 and 30 min after induction and compared to the numbers in the control (DMSO treatment). Activity was expressed as the percentage of exflagellation inhibition compared to the control.

Data set [3] has as its system P. falciparum F32-ART5 (artemisinin-resistant). In words: Standard in vitro chemosensitivity assay (hypoxanthine uptake), F32-ART5. Conditions: Plasmodium falciparum, F32, 48 h, read-out: Mean EC50 ± SD. The data set is classed as cell-based. As for the experimental part:
The Plasmodium falciparum artemisinin-resistant strain F32-ART5 and its twin artemisinin-sensitive line F32-TEM ([30], [31]) were cultivated at 37°C with 5% CO2 in human red blood cells (EFS [French Blood Bank]) diluted to 2% hematocrit in RPMI 1640 medium supplemented with 5% human serum (EFS) as previously reported ([47]).
In vitro susceptibility of P. falciparum parasites was determined by using the standard hypoxanthine uptake inhibition assay as described previously ([51]) with some modifications ([52]). After D-sorbitol treatment, parasites synchronized at the ring stage were exposed for 48 h, with [^3H]hypoxanthine (Perkin Elmer, France), to a range of concentrations of the different tested compounds. […] Each result represents 3 independent experiments.

In data set [4] the test system is P. falciparum strain K1 in RBC. Description: In vitro chemosensitivity assay, blood stage P. falciparum K1 (SYBR green I). Conditions: Plasmodium falciparum, K1; erythrocytic stage, 72 h; read-out: EC50 (μM) for P. falciparum strain K1 in RBC. The class given is cell-based. As for the experimental part: Maintenance in continuous culture was done as described previously by Trager and Jensen ([46]). Cultures were maintained in fresh A+ human erythrocytes (EFS [French Blood Bank]) at 2.5% hematocrit in complete medium (RPMI 1640 with 25 mM HEPES, 25 mM NaHCO3, 10% A+ human serum) at 37°C under a reduced-O2 atmosphere (gas mixture of 10% O2, 5% CO2, and 85% N2). Parasitemia was maintained daily between 1% and 3%. The P. falciparum drug susceptibility test was carried out by comparing quantities of DNA in treated and control cultures of parasites in human erythrocytes according to a SYBR green I fluorescence-based method ([50]) using a 96-well fluorescence plate reader. Compounds, previously dissolved in DMSO (final concentration, less than 0.5% vol/vol), were incubated in a total assay volume of 200 μl of synchronized culture suspension (2% hematocrit and 0.4% parasitemia) for 72 h in a humidified atmosphere (85% N2, 10% O2, and 5% CO2) at 37°C in 96-well flat-bottom plates. Duplicate assays were performed for each sample. After incubation, plates were frozen at −20°C for 24 h. Then, the frozen plates were thawed for 1 h at 37°C. Fifteen microliters of each sample was transferred to 96-well flat-bottom black plates (Greiner Bio-one) already containing 15 μl of the SYBR green I lysis buffer (2× SYBR green I, 20 mM Tris base, pH 7.5, 20 mM EDTA, 0.008% [wt/vol] saponin, 0.08% [wt/vol] Triton X-100). […] Plates were incubated for 15 min at 37°C and then read on a Tecan Infinite F-200 spectrophotometer with excitation and emission wavelengths at 485 and 535 nm, respectively. […] EC50K1 values represent the mean values calculated from three independent experiments.

As usually defined, the CC50 is the concentration that lowers cell viability or growth by half. Lower therefore signals harm at low concentration. As usually defined, the EC50 is the concentration at which the effect is half-maximal.

With `Cc1ccc(-c2cc3nc(NC(C)(C)C)[nH]c(=O)c3s2)cc1` [Metabolite M1, 2-(tert-Butylamino)-6-(p-tolyl)thieno[3,2-d]pyrimidin-4(3H)-one], the half-maximal cytotoxic concentration (CC50) at 8 days in data set [1] was more than 60000 nM. Moreover, the “mean percentage for male exflagellation” value in data set [2] is 7.5%. The EC50 was found to be 227 ± 40 nM in data set [3] and 0.045 µM in data set [4].
